The values below come from patent publication US8173638B2 (Boehringer Ingelheim International GmbH, priority 2006, dated 2012).

The target of the experiment is T1, human CB2R (Homo sapiens, UniProt P34972).
T1 construct: host or cells: CHO cells
T1 sequence (P34972 whole entry): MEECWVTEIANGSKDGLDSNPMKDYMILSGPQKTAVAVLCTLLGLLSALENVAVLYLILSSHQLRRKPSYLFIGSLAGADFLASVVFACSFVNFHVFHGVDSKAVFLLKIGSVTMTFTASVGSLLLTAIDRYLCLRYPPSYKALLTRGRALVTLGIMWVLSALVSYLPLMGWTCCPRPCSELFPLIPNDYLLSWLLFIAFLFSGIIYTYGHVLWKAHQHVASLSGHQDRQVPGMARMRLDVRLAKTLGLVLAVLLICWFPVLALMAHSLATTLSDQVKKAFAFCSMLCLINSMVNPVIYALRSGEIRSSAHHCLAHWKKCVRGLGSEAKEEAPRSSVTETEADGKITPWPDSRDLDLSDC
Description: CB2R mediated modulation of cAMP synthesis. To be noted: found through the use of the described assays (CB2 agonists); qualitative statement. It is filed as cell-based. Here is the method:
B. CB2R Mediated Modulation of cAMP Synthesis:
CHO cells expressing human CB2R (Euroscreen) were plated at a density of 5000 cells per well in 384 well plates and incubated overnight at 37° C. After removing the media, the cells were treated with test compounds diluted in stimulation buffer containing 1 mM IBMX, 0.25% BSA and 10 uM Forskolin. The assay was incubated for 30 minutes at 37° C. Cells were lysed and the cAMP concentration was measured using DiscoverX-XS cAMP kit, following the manufacturer's protocol. In this setting, agonists will decrease forskolin induced production of cAMP while inverse agonists will further increase forskolin induced production of cAMP. EC50 of agonists were calculated as follows. The maximal amount of cAMP produced by forskolin compared to the level of cAMP inhibited by 1 uM CP55940 is defined as 100%. […] Data was analyzed using a four-parameter logistic model. (Model 205 of XLfit 4.0).
Regarding `CS(=O)(=O)c1ccc(NC(=O)N2CCCN(C(=O)CC3CCOCC3)CC2)cc1` [4-(2-Tetrahydro-pyran-4-yl-acetyl)-[1,4]diazepane-1-carboxylic acid (4-methanesulfonyl-phenyl)-amide], the agonistic activity entry is “agonistic activity”.
For `CSc1ccc(NC(=O)N2CCCN(C(=O)CC3CCOCC3)CC2)cc1` [4-(2-Tetrahydro-pyran-4-yl-acetyl)-[1,4]diazepane-1-carboxylic acid (4-methylsulfanyl-phenyl)-amide] the value was “agonistic activity”.
On to `CCCCCc1ccc(NC(=O)N2CCCN(C(=O)CC3CCOCC3)CC2)cc1` [4-(2-Tetrahydro-pyran-4-yl-acetyl)-[1,4]diazepane-1-carboxylic acid (4-pentyl-phenyl)-amide], for which the agonistic activity entry is “agonistic activity”.
As to `CCC(C)c1ccc(NC(=O)N2CCCN(C(=O)CC3CCOCC3)CC2)cc1` (stereo not drawn) [4-(2-Tetrahydro-pyran-4-yl-acetyl)-[1,4]diazepane-1-carboxylic acid (4-sec-butyl-phenyl)-amide], the agonistic activity result is recorded as “agonistic activity”.
Regarding `CC(C)(C)c1ccc(NC(=O)N2CCCN(C(=O)CC3CCOCC3)CC2)cc1` [4-(2-Tetrahydro-pyran-4-yl-acetyl)-[1,4]diazepane-1-carboxylic acid (4-tert-butyl-phenyl)-amide], the agonistic activity result was “agonistic activity”.
For `O=C(CC1CCOCC1)N1CCCN(C(=O)Nc2ccc(OC(F)(F)F)cc2)CC1` [4-(2-Tetrahydro-pyran-4-yl-acetyl)-[1,4]diazepane-1-carboxylic acid (4-trifluoromethoxy-phenyl)-amide] the value was “agonistic activity”; for `O=C(CC1CCOCC1)N1CCCN(C(=O)Nc2ccc(C(F)(F)F)cc2)CC1` [4-(2-Tetrahydro-pyran-4-yl-acetyl)-[1,4]diazepane-1-carboxylic acid (4-trifluoromethyl-phenyl)-amide], “agonistic activity”.
For `CC(C)(C)c1ccc(NC(=O)N2CCCN(C(=O)CN3CCSCC3)CC2)cc1` [4-(2-Thiomorpholin-4-yl-acetyl)-[1,4]diazepane-1-carboxylic acid (4-tert-butyl-phenyl)-amide] the value was “agonistic activity”; for `CC(C)(C)c1cc(NC(=O)N2CCCN(C(=O)CN3CCSCC3)CC2)no1` [4-(2-Thiomorpholin-4-yl-acetyl)-[1,4]diazepane-1-carboxylic acid (5-tert-butyl-isoxazol-3-yl)-amide], “agonistic activity”.
With `O=C(CC1CCCC1)N1CCCN(C(=O)Nc2ccc(SC(F)(F)F)cc2)CC1` [4-(2-cyclopentyl-acetyl)-[1,4]diazepane-1-carboxylic acid (4-trifluoromethylsulfanyl-phenyl)-amide] the entry was “agonistic activity”; with `CC(C)c1ccc(NC(=O)N2CCCN(C(=O)CC(C)(C)C)CC2)cc1` [4-(3,3-Dimethyl-butyryl)-[1,4]diazepane-1-carboxylic acid (4-isopropyl-phenyl)-amide], “agonistic activity”; with `CC(C)(C)CC(=O)N1CCCN(C(=O)Nc2ccc(C(C)(C)C)cc2)CC1` [4-(3,3-Dimethyl-butyryl)-[1,4]diazepane-1-carboxylic acid (4-tert-butyl-phenyl)-amide], “agonistic activity”.
`CC(C)(C)CC(=O)N1CCCN(C(=O)Nc2ccc3ccccc3c2)CC1` [4-(3,3-Dimethyl-butyryl)-[1,4]diazepane-1-carboxylic acid naphthalen-2-ylamide]: the agonistic activity entry is given as “agonistic activity”.
With `CC(C)(C)c1ccc(NC(=O)N2CCCN(C(=O)c3ccc(Cl)c(Cl)c3)CC2)cc1` [4-(3,4-Dichloro-benzoyl)-[1,4]diazepane-1-carboxylic acid (4-tert-butyl-phenyl)-amide] the entry was “agonistic activity”; with `O=C(Nc1ccc2ccccc2c1)N1CCCN(C(=O)c2ccc(Cl)c(Cl)c2)CC1` [4-(3,4-Dichloro-benzoyl)-[1,4]diazepane-1-carboxylic acid naphthalen-2-ylamide], “agonistic activity”.
For the molecule `CC(C)(C)c1ccc(NC(=O)N2CCCN(C(=O)c3cc(Cl)cc(Cl)c3)CC2)cc1` [4-(3,5-Dichloro-benzoyl)-[1,4]diazepane-1-carboxylic acid (4-tert-butyl-phenyl)-amide], the agonistic activity entry is listed as “agonistic activity”.
On to `CC(C)c1ccc(NC(=O)N2CCCN(C(=O)c3cccc(Cl)c3)CC2)cc1` [4-(3-Chloro-benzoyl)-[1,4]diazepane-1-carboxylic acid (4-isopropyl-phenyl)-amide], for which the agonistic activity entry was “agonistic activity”.
With `CCCCc1ccc(NC(=O)N2CCCN(C(=O)CCC3CCCCC3)CC2)cc1` [4-(3-Cyclohexyl-propionyl)-[1,4]diazepane-1-carboxylic acid (4-butyl-phenyl)-amide] the entry was “agonistic activity”; with `CC(C)c1ccc(NC(=O)N2CCCN(C(=O)CCC3CCCCC3)CC2)cc1` [4-(3-Cyclohexyl-propionyl)-[1,4]diazepane-1-carboxylic acid (4-isopropyl-phenyl)-amide], “agonistic activity”; with `CC(C)(C)c1ccc(NC(=O)N2CCCN(C(=O)CCC3CCCCC3)CC2)cc1` [4-(3-Cyclohexyl-propionyl)-[1,4]diazepane-1-carboxylic acid (4-tert-butyl-phenyl)-amide], “agonistic activity”.
For `O=C(CCC1CCCCC1)N1CCCN(C(=O)Nc2ccc3ccccc3c2)CC1` [4-(3-Cyclohexyl-propionyl)-[1,4]diazepane-1-carboxylic acid naphthalen-2-ylamide] the value was “agonistic activity”; for `N#Cc1ccc(NC(=O)N2CCCN(C(=O)CCC3CCCC3)CC2)cc1` [4-(3-Cyclopentyl-propionyl)-[1,4]diazepane-1-carboxylic acid (4-cyano-phenyl)-amide], “agonistic activity”.
With `CN(C)c1ccc(NC(=O)N2CCCN(C(=O)CCC3CCCC3)CC2)cc1` [4-(3-Cyclopentyl-propionyl)-[1,4]diazepane-1-carboxylic acid (4-dimethylamino-phenyl)-amide] the entry was “agonistic activity”; with `CCc1ccc(NC(=O)N2CCCN(C(=O)CCC3CCCC3)CC2)cc1` [4-(3-Cyclopentyl-propionyl)-[1,4]diazepane-1-carboxylic acid (4-ethyl-phenyl)-amide], “agonistic activity”; with `CS(=O)(=O)c1ccc(NC(=O)N2CCCN(C(=O)CCC3CCCC3)CC2)cc1` [4-(3-Cyclopentyl-propionyl)-[1,4]diazepane-1-carboxylic acid (4-methanesulfonyl-phenyl)-amide], “agonistic activity”.
Consider `CSc1ccc(NC(=O)N2CCCN(C(=O)CCC3CCCC3)CC2)cc1` [4-(3-Cyclopentyl-propionyl)-[1,4]diazepane-1-carboxylic acid (4-methylsulfanyl-phenyl)-amide], for which the agonistic activity result is reported as “agonistic activity”.
For `CCCCCc1ccc(NC(=O)N2CCCN(C(=O)CCC3CCCC3)CC2)cc1` [4-(3-Cyclopentyl-propionyl)-[1,4]diazepane-1-carboxylic acid (4-pentyl-phenyl)-amide] the value was “agonistic activity”; for `CCCc1ccc(NC(=O)N2CCCN(C(=O)CCC3CCCC3)CC2)cc1` [4-(3-Cyclopentyl-propionyl)-[1,4]diazepane-1-carboxylic acid (4-propyl-phenyl)-amide], “agonistic activity”; for `O=C(CCC1CCCC1)N1CCCN(C(=O)Nc2ccc(C(F)(F)F)cc2)CC1` [4-(3-Cyclopentyl-propionyl)-[1,4]diazepane-1-carboxylic acid (4-trifluoromethyl-phenyl)-amide], “agonistic activity”.
With `O=C(CCC1CCCC1)N1CCCN(C(=O)NC2CCCCC2)CC1` [4-(3-Cyclopentyl-propionyl)-[1,4]diazepane-1-carboxylic acid cyclohexylamide] the entry was “agonistic activity”; with `O=C(CCC1CCCC1)N1CCCN(C(=O)NCC2CCCCC2)CC1` [4-(3-Cyclopentyl-propionyl)-[1,4]diazepane-1-carboxylic acid cyclohexylmethyl-amide], “agonistic activity”; with `Cc1cccc(NC(=O)N2CCCN(C(=O)CCC3CCCC3)CC2)c1` [4-(3-Cyclopentyl-propionyl)-[1,4]diazepane-1-carboxylic acid m-tolylamide], “agonistic activity”.
With `O=C(CCC1CCCC1)N1CCCN(C(=O)Nc2cccc3ccccc23)CC1` [4-(3-Cyclopentyl-propionyl)-[1,4]diazepane-1-carboxylic acid naphthalen-1-ylamide] the entry was “agonistic activity”; with `O=C(CCC1CCCC1)N1CCCN(C(=O)Nc2ccc3ccccc3c2)CC1` [4-(3-Cyclopentyl-propionyl)-[1,4]diazepane-1-carboxylic acid naphthalen-2-ylamide], “agonistic activity”; with `CCCCc1ccc(NC(=O)N2CCCN(C(=O)CCC3CC3)CC2)cc1` [4-(3-Cyclopropyl-propionyl)-[1,4]diazepane-1-carboxylic acid (4-butyl-phenyl)-amide], “agonistic activity”.
For `CC(C)c1ccc(NC(=O)N2CCCN(C(=O)CCC3CC3)CC2)cc1` [4-(3-Cyclopropyl-propionyl)-[1,4]diazepane-1-carboxylic acid (4-isopropyl-phenyl)-amide], the agonistic activity entry is “agonistic activity”.
